{"source": "patent US12492232B2", "about": "“Methods for producing proteins” (South Australian Health and Medical Research Institute …, priority 2018, dated 2025)", "key": {"CHO cells": {"test_system": "CHO cells", "assay": "Growth of transfected CHO cells in medium with 10%, 1%, 0.5% or 0% FBS (cell counts over 7 days)", "format": "cell-based", "protocol": "CHO cells were seeded into 24-well plates at 5,000 cells/well. […] 24 h after transfection, cells were transferred to medium containing 10%, 1%, 0.5% or 0% FBS as indicated. Every 24 h for 7 days, cells were trypsinized (from different dishes on each occasion) and counted on a haemocytometer. Growth medium was changed every 2 days.\nCHO cells were seeded into 24-well plates at 5,000 cells/well. […] 24 h after transfection, cells were transferred to media (Ham's F12 from Life Technologies, Cat. No. 11765054) containing 10%, 1%, 0.5% or 0% foetal bovine serum, as indicated. Cells were trypsinized and counted on a haemocytometer every 24 h for 7 days. Growth medium was changed every 2 days."}, "[1]": {"test_system": "CHO cells stably expressing Firefly luciferase (FLuc)", "assay": "Firefly luciferase assay in CHO cells stably expressing FLuc transfected with Rheb vectors", "format": "cell-based", "details": "day 7, normalised to cell number", "protocol": "CHO cells stably expressing Firefly luciferase (FLuc) or Gaussia luciferase (GLuc) as indicated were transfected using Lipofectamine3000 with an empty vector (EV) or vectors for Rheb WT, S21L, T23M, G29S, Y35N or E40K and also treated with the mTOR inhibitor AZD8055 at 100 nM for the total duration where indicated. Fluc and GLuc assays were performed 24 h after transfection and then every 48 h for 7 days. Assay results are normalised to cell number. GLuc-CHO cells were harvested for SDS-PAGE and Western Blot analysis at the 168 h (7-day) time-point to probe for intracellular GLuc, FLAG (Rheb) and actin, as ‘loading control’. […] In (E), secreted GLuc was monitored every 4 h from 24 h to 60 h showing the rate of secretion of GLuc was higher when Rheb-T23M is expressed as compared to Rheb-Y35N. The pattern for intracellular levels of Gaussia luciferase (assessed by immunoblot of cell lysates harvested at 7 days post transfection) more closely resemble those intracellular firefly luciferase (F) with little change compared to either the empty vector or WT while still retaining heightened mTORC1 signalling as indicated by the elevated levels of P-S6K1 Thr389 compared to cells transfected with the empty vector. […]"}, "[2]": {"test_system": "mTORC1 and ER Stress activation markers", "assay": "Western blot for mTORC1 and ER stress activation markers in ExpiCHO cells stably expressing Rheb variants", "format": "cell-based"}, "TSC1/TSC2": {"test_system": "TSC1/TSC2", "assay": "GAP assay: TSC1/TSC2-promoted hydrolysis of GTP bound to recombinant GST-Rheb", "format": "biochemical", "details": "FLAG-TSC1, FLAG-TSC2, [α-32P]GTP, n=3", "text": "FIGS. 1A-1B: Recombinant GST-Rheb proteins were subjected to GAP assay in the presence of FLAG-TSC1, FLAG-TSC2 and [α-^32P] GTP. GST-Rheb bound to GDP or GTP was pulled down using glutathione beads and the nucleotides were then separated by thin-layer chromatography and visualized by phosphorimager. The positions of GDP and GTP are shown (FIG. 1A). […] FIGS. 1C-1D: CHO cells were co-transfected using Lipofectamine 3000 with vectors encoding wildtype (WT) Rheb or the indicated mutants and TSC1/2 as indicated. 36 h after transfection, cells were transferred to Ham's F12 media lacking FBS for 16 h. Cells were the transferred to Dulbecco's phosphate-buffered saline (D-PBS, which lacks amino acids) for 1 h before cell lysates were harvested for SDS-PAGE and Western Blotting analysis using the indicated antibodies. […] This effect is consistent with lack of sensitivity of the mutant Rhebs to TSC1/TSC2. Thus the Rheb mutants S21L, T23M, G29S, Y35N and E40K promote mTORC1 signalling in the absence of upstream activation due to insensitivity to the GAP activity of the TSC complex.\nA) Recombinant GST-Rheb proteins were subjected to GTPase assays in the presence of FLAG-TSC1, FLAG-TSC2 and [α-^32P]GTP. Nucleotide-bound GST-Rheb was purified from the reaction mixture using 20 μl glutathione bead slurry. Radioactive GDP and GTP were separated by thin-layer chromatography and visualized by phosphorimager."}, "[3]": {"test_system": "mTORC1 localisation at the lysosome", "assay": "Immunofluorescence of mTOR and LAMP1 colocalisation in serum-starved transfected CHO cells", "format": "cell-based", "details": "medium lacking FBS for 16 h", "protocol": "(§1) 24 h after transfection cells were transferred to medium lacking FBS for 16 hours. Cells were fixed with 4% paraformaldehyde, permeabilized with 0.05% Triton X-100, blocked with 10% normal donkey serum before LAMP1 and then anti-mTOR antibodies were applied overnight. Alexa Fluor™ 488 and 594-labelled secondary antibodies were applied before cells were mounted and stained with DAPI.\nas §1, with “h.” for “hours.”, “mTOR” for “then anti-mTOR”, “594” for “594-labelled”"}, "mTORC1 signalling": {"test_system": "mTORC1 signalling", "assay": "mTORC1 signalling (Western blot, S6K1 and rpS6) in transfected CHO cells starved of serum and amino acids, with or without TSC1/2 co-transfection", "format": "cell-based", "protocol": "GTP. GST-Rheb bound to GDP or GTP was pulled down using glutathione beads and the nucleotides were then separated by thin-layer chromatography and visualized by phosphorimager. The positions of GDP and GTP are shown (FIG. 1A). […] FIGS. 1C-1D: CHO cells were co-transfected using Lipofectamine 3000 with vectors encoding wildtype (WT) Rheb or the indicated mutants and TSC1/2 as indicated. 36 h after transfection, cells were transferred to Ham's F12 media lacking FBS for 16 h. Cells were the transferred to Dulbecco's phosphate-buffered saline (D-PBS, which lacks amino acids) for 1 h before cell lysates were harvested for SDS-PAGE and Western Blotting analysis using the indicated antibodies."}}, "note": "Entries after “also recorded” stand apart in the source; their conditions may differ."}
{"substance": "Rheb-T23M: human Rheb protein with a methionine variant at residue 23 (T23M), SEQ ID NO. 3", "values": [{"measurement": "cell growth in serum-free medium", "setting": "CHO cells; 0% FBS", "result": "allows CHO cells to grow efficiently in serum-free medium"}, {"measurement": "cell growth in 0.5% FBS", "setting": "CHO cells; 0.5% FBS", "result": "significant growth advantage over the other Rheb mutants; also recorded: substantially greater proliferation"}, {"measurement": "cell growth in medium with 10% and 1% FBS", "setting": "CHO cells; 10% or 1% FBS", "result": "no effect on cell growth"}, {"measurement": "increase in synthesis of intracellular Firefly luciferase compared to the empty vector", "setting": "[1]", "result": "ca. 1.2 fold"}, {"measurement": "ER stress response (Western blot markers)", "setting": "[2]", "result": "mild ER stress response"}, {"measurement": "mTORC1 signalling (Western blot markers)", "setting": "[2]", "result": "increased mTORC1 signalling"}, {"measurement": "hydrolysis of GTP bound to Rheb promoted by TSC1/TSC2", "setting": "TSC1/TSC2", "result": "completely unable to promote hydrolysis of GTP; also recorded: did not promote hydrolysis of GTP"}, {"measurement": "mTOR localisation to the lysosome (overlap with LAMP1)", "setting": "[3]", "result": "promote localisation; also recorded: strong mTOR localisation on lysosomes"}, {"measurement": "mTORC1 signalling in the absence of upstream activation", "setting": "mTORC1 signalling; no serum 16 h, D-PBS 1 h, compared to empty vector and Rheb-WT", "result": "increased mTORC1 signalling over both the empty vector and Rheb-WT"}, {"measurement": "mTORC1 signalling when co-transfected with TSC1/TSC2", "setting": "mTORC1 signalling; no serum and amino acids, co-transfected with TSC1/TSC2", "result": "no reduction"}]}
